# Results as given in patent EP4725507A1, “POLYPEPTIDE CONJUGATE, PHARMACEUTICAL COMPOSITION CONTAINING POLYPEPTIDE CONJUGATE AND USE THEREOF” (Nanjing Anji Biotechnology Co., Ltd., priority 2023, dated 2025).
# Peptide text beside a SMILES is read from it. * marks the point of attachment. Paclitaxel(2'-O-succinyl) = CC(=O)O[C@H]1C(=O)[C@@]2(C)[C@H]([C@H](OC(=O)c3ccccc3)[C@]3(O)C[C@H](OC(=O)[C@H](OC(=O)CCC(=O)*)[C@@H](NC(=O)c4ccccc4)c4ccccc4)C(C)=C1C3(C)C)[C@]1(OC(C)=O)CO[C@@H]1C[C@@H]2O
# Tests used:
# Experiment in all cases: Tumor cell proliferation inhibition (CCK8)
# Format in all cases: cell-based
# Conditions in all cases: IC50 of free drug / IC50 of polypeptide conjugate
# [1] = test system: SiHa (human cervical cancer cells)
# From the text: (§1) Human highly metastatic hepatocellular carcinoma cells HCCLM3, human highly metastatic gastric cancer cells MKN45, human gastric cancer cells BGC-823 and MGC-803, non-small cell lung cancer cells A549, human pancreatic cancer cells ASPC-1, human colon cancer cells LoVo, human ovarian cancer cells A2780, human cervical cancer cells SiHa, human malignant melanoma cells SK-mel-2 and M14, human osteosarcoma cells Saos-2, human bladder transitional cell carcinoma cells T24, human brain glioblastoma cells U87-MG, human lymphoma cells Raji, and human epidermal cancer cells A431 were selected for the experiment. Among them, HCCLM3 cells, MKN45 cells, BGC-823 cells, MGC-803 cells, A431 cells and A549 cells were provided by Nanjing Anji Biotechnology Co., Ltd., and the other cells were provided by Nanjing Ouji Pharmaceutical Technology Service Co., Ltd.
# (§2) The aforementioned tumor cells were preserved in a medium containing 10% fetal bovine serum and 1% penicillin-streptomycin, and incubated at 37°C with 5% CO2 and 95% humidity. The aforementioned tumor cells were cultured in T75 flasks with an experimental cell density of 80%. The aforementioned tumor cell lines were mycoplasma-negative.
# (§3) Tumor cells in the logarithmic growth phase were taken for the experiment. The cells were digested, counted, and prepared into a cell suspension with a concentration of 1×10^5 cells/mL, which was then inoculated into a 96-well plate (100 µL per well). The 96-well plate was incubated in a 37°C, 5% CO2 incubator for 24 hours. […] After incubating the plate in the incubator for 72 h, the cell morphology of each group was observed under a microscope. Then, 10 µL of CCK8 solution (Nanjing Enjing Biotechnology Co., Ltd.) was added to each well, and the plate was further incubated in the cell incubator for 4 h. After incubation, the absorbance was measured at 450 nm, and the tumor cell proliferation inhibition rate was calculated. The efficiency ratio was the ratio of the IC50 value of the free drug to that of the polypeptide conjugate. Table 1 Tumor cell proliferation inhibition rates of polypeptide conjugates
# [2] = test system: M14 (human malignant melanoma cells)
# From the text: as §1, §2, §3
# [3] = test system: ASPC-1 (human pancreatic cancer cells)
# From the text: as §1, §2, §3
# [4] = test system: LoVo (human colon cancer cells)
# From the text: as §1, §2, §3
# [5] = test system: U87-MG (human brain glioblastoma cells)
# From the text: as §1, §2, §3
# [6] = test system: SK-mel-2 (human malignant melanoma cells)
# From the text: as §1, §2, §3
# [7] = test system: T24 (human bladder transitional cell carcinoma cells)
# From the text: as §1, §2, §3
# [8] = test system: Saos-2 (human osteosarcoma cells)
# From the text: as §1, §2, §3
# [9] = test system: A2780 (human ovarian cancer cells)
# From the text: as §1, §2, §3
# [10] = test system: Raji (human lymphoma cells)
# From the text: as §1, §2, §3
smiles,measurement,setting,value
CC(=O)O[C@@]12CO[C@@H]1C[C@H](O)[C@@]1(C)C(=O)[C@H](O)C3=C(C)[C@@H](OC(=O)[C@H](OC(=O)CCC(=O)N[C@@H](CCCNC(=N)N)C(=O)N[C@@H](CO)C(=O)N4CCC[C@H]4C(=O)N[C@@H](Cc4ccc(O)cc4)C(=O)N[C@@H](C)C(=O)N[C@@H](CC(N)=O)C(=O)N[C@@H](CO)C(=O)O)[C@@H](NC(=O)OC(C)(C)C)c4ccccc4)C[C@@](O)([C@@H](OC(=O)c4ccccc4)[C@H]21)C3(C)C [DOC-AI],Efficiency Ratios,[1],3.90
same,Efficiency Ratios,[2],1.21
same,Efficiency Ratios,[3],2.31
same,Efficiency Ratios,[4],1.18
same,Efficiency Ratios,[5],2.05
same,Efficiency Ratios,[6],1.00
CC(=O)O[C@H]1C(=O)[C@@]2(C)[C@H]([C@H](OC(=O)c3ccccc3)[C@]3(O)C[C@H](OC(=O)[C@H](OC(=O)CCC(=O)N[C@@H](CCCNC(=N)N)C(=O)N[C@@H](CO)C(=O)N4CCC[C@H]4C(=O)N[C@@H](Cc4ccc(O)cc4)C(=O)N[C@@H](C)C(=O)N[C@@H](CC(N)=O)C(=O)N[C@@H](CO)C(=O)O)[C@@H](NC(=O)c4ccccc4)c4ccccc4)C(C)=C1C3(C)C)[C@]1(OC(C)=O)CO[C@@H]1C[C@@H]2O [PTX-AI] ({Paclitaxel(2'-O-succinyl)}-RSPYANS-OH),Efficiency Ratios,[7],1.78
same,Efficiency Ratios,[8],1.47
same,Efficiency Ratios,[9],1.11
same,Efficiency Ratios,[10],1.09
